Data as given in patent US9895363B2, “Methods for modulating function of proliferating cell nuclear antigen (PCNA) and treating cancer with PCNA-targeting compounds” (University of Cincinnati, priority 2010, dated 2018).

Tests used:
LNCaP cells = experiment: LNCaP tumor model in male nude mice; format: in vivo
Procedure: The therapeutic effects of PCNA-I1 were evaluated in LNCaP cells and 22Rv1 tumor models. LNCaP or 22Rv1 cells (1-2×10^6 cells in gelfoam) were implanted into the subcutis of male nude mice. From four to five days later, tumor-bearing mice were intraperitoneally injected with 10 mg/kg or 50 mg/kg of PCNA-I1. The therapy was continued at three times/week until termination of experiments. Control and treated tumor-bearing mice were monitored daily. Mouse body weight was recorded for toxicity evaluation twice a week and tumor size was measured using calipers twice a week. The experiments were terminated when mice in control groups were moribund. Additionally, to further evaluate potential liver and renal toxicity of PCNA-I1, the blood of tumor-bearing mice were sampled after the treatment with PCNA-I1 for 8 weeks.

PCNA = target: T1, PCNA (Homo sapiens, UniProt P12004); experiment: Association of PCNA with chromatin, PC-3 (NP-E/NP-R western blot); format: cell-based
T1 construct: endogenous PCNA was knocked down with transfection of PCNA-specific siRNA; endogenous in cells; host or cells: PC-3
T1 sequence (P12004 whole entry): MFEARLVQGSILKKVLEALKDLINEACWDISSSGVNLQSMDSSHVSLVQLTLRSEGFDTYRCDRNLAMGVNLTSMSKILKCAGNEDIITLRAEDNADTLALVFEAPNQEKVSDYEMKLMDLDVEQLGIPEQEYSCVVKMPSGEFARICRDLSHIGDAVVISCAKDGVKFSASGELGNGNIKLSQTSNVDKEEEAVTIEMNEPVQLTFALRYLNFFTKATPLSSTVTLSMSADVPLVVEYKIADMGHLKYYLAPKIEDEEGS
Procedure: The encircling of DNA and association with chromatin is required for PCNA to execute its function. Therefore, the effect of PCNA-I1 on the association of PCNA with chromatin was investigated. PC-3 cells were treated for various times with 0.5 μM of PCNA-I1 and lysed in buffer A (10 mM Tris-HCl, pH 7.4, 2.5 mM MgCl2, 0.5% NP-40, 1 mM DTT, 1 mM PMSF, and protease inhibitor cocktail). Samples were pelleted by centrifuge (1500×g, 2 min, 4° C.), and supernatant collected as NP-40-extractable ([…]) fraction. The pellet was washed in NP-40 buffer B (10 mM Tris-HCl, pH 7.4, 150 mM NaCl, 1 mM PMSF, and a protease inhibitor cocktail) to release the free form of PCNA. The cells were resuspended and digested in buffer C (10 mM Tris-HCl, pH 7.4, 10 mM NaCl, 5 mM MgCl2, 0.2 mM PMSF, and protease inhibitors) with 200 units/[…] of DNase I for 30 min at 37° C. After centrifugation at 13,000×g for 5 min at 4° C., the supernatant was collected and fractions were analyzed by western blotting. MCF-7, HeLa, and LNCaP cells were also subjected to treatment with 0.5 μM of PCNA-I1 and subjected to western blotting as previously discussed.

B16 melanoma cells = experiment: Growth inhibition by MTT staining, B16; format: cell-based; conditions: B16, 96 h, Mouse, treated four days
Procedure: (§1) Growth inhibitory effects of PCNA-I1 and PCNA-I2 were assessed in human cancer cell lines, mouse cancer cell lines, immortalized mouse cell lines, and human primary cell lines. Specifically, growth inhibitory effects of PCNA-I1 and PCNA-I2 were assessed using MTT staining in the following cells lines: 1) human cancer cell lines including LNCaP (androgen receptor […]), 22Rv1, DU-145, LAPC-4, and PC-3 (androgen receptor […]) prostate cancer cells; MCF-7 and T47D breast cancer cells; A375 and MDA-MB435 melanoma cells; 2) mouse cancer cell lines including TRAMP-C2RE3 prostate cancer cells, B16 and K1735 melanoma cells, UV2237 fibrosarcoma cells, and CT-26 colon cancer cells; 3) immortalized mouse lung cell lines and mouse endothelial cell lines; and 4) primary human cell lines including umbilical endothelial cells (HUVEC, PromoCell, Heidelberg, Germany), primary bone marrow mesenchymal stem cells (HuMSC, PromoCell), primary human mammary epithelial cells (HuBrEC, Lonza, Walkersville, Md.), primary human prostate epithelial cells (HuPrEC, Lonza), and primary mouse spleen lymphocytes (isolated in this laboratory), and primary mouse bone marrow stromal cells (isolated in this laboratory). […]
(§2) IC50 values were derived from growth inhibition curves. […] Inhibition of cell growth was calculated using the formula: growth inhibition (%)=(1−A570 of treated/A570 of control)×100. […]

[1] = system: DU145 prostate cancer cells; experiment: Growth inhibition by MTT staining, DU145; format: cell-based; conditions: DU-145, 96 h, Human tumor cells, treated four days
Procedure: as §1, §2

[2] = system: LNCaP prostate cancer cells; experiment: Growth inhibition by MTT staining, LNCaP; format: cell-based, Human; conditions: 96 h, Table II, Human tumor cells, treated four days, mean of five to seven experiments, read-out: IC50 Values, LNCaP
Procedure: Growth inhibitory effects of PCNA-I1 and PCNA-I2 were assessed in human cancer cell lines, mouse cancer cell lines, immortalized mouse cell lines, and human primary cell lines. Specifically, growth inhibitory effects of PCNA-I1 and PCNA-I2 were assessed using MTT staining in the following cells lines: 1) human cancer cell lines including LNCaP (androgen receptor […]), 22Rv1, DU-145, LAPC-4, and PC-3 (androgen receptor […]) prostate cancer cells; MCF-7 and T47D breast cancer cells; A375 and MDA-MB435 melanoma cells; 2) mouse cancer cell lines including TRAMP-C2RE3 prostate cancer cells, B16 and K1735 melanoma cells, UV2237 fibrosarcoma cells, and CT-26 colon cancer cells; 3) immortalized mouse lung cell lines and mouse endothelial cell lines; and 4) primary human cell lines including umbilical endothelial cells (HUVEC, PromoCell, Heidelberg, Germany), primary bone marrow mesenchymal stem cells (HuMSC, PromoCell), primary human mammary epithelial cells (HuBrEC, Lonza, Walkersville, Md.), primary human prostate epithelial cells (HuPrEC, Lonza), and primary mouse spleen lymphocytes (isolated in this laboratory), and primary mouse bone marrow stromal cells (isolated in this laboratory). PCNA-I1 and PCNA-I2 were either provided by the University of Cincinnati Drug Discovery Center (UC-DDC, Cincinnati, Ohio) or were purchased from Chembridge Co (San Diego, Calif.), ChemDiv (San Diego, Calif.), and/or Sigma-Aldrich (St Louis, Mo.).
Growth inhibitory effects of the compounds were assessed by MTT staining as described previously by Dong et al. in In Vitro Model for Intrinsic Drug Resistance: Effects of Protein Kinase C Activators on the Chemosensitivity of Cultured Human Colon Cancer Cells; Mol. Pharmacol. 1991; 39: 563-9. Briefly, cells were cultured and treated in their respective media. Cells were plated into 96-well plates at 1000 to 5000 cells/well. After an overnight incubation, the cells were treated for four days with various concentrations (up to 10 μM) of PCNA-I1 or PCNA-I2. The live cells were stained with MTT and cells in exponential growth phase were harvested by a one to three minute treatment with a 0.25% trypsin-0.02% EDTA solution. Flasks were tapped to detach the cells, RPMI 1640-10% FBS was added, and the cell suspensions were gently agitated to produce single-cell suspensions. The cell suspensions were washed and resuspended in medium with supplements specified for different cells. Only suspensions of single cells with a viability exceeding 95% (ascertained by trypan blue exclusion) were used.
IC50 values were derived from growth inhibition curves. Data for tumor cells are a mean of five to seven experiments. Data for primary cells are a mean of three experiments. […] Inhibition of cell growth was calculated using the formula: growth inhibition (%)=(1−A570 of treated/A570 of control)×100. IC50 (the concentration that inhibited cell growth by 50%) values were also determined. For evaluation of lymphocyte growth in suspension, an Alamar blue assay was performed, wherein freshly prepared mouse spleen lymphocytes were stimulated for 72 H with 2 ug/mL concanavalin A (Sigma Chemicals, St. Louis, […].). During the last 24 H, 20 μl/well of Alamar blue (Invitrogen, Carlsbad, Calif.) was added. The fluorescence intensity was measured at 530/580 (excitation/emission) in the FLUOstar Omega microplate reader (BMG LABTECH, Cary, N.C.).
Growth inhibitory effects of PCNA-I3, PCNA-I4, PCNA-I6, PCNA-I7, PCNA-I8, PCNA-I9 and PCNA-I10 were assessed in human prostate cancer cell lines. Specifically, growth inhibitory effects of PCNA-I3, PCNA-I4, PCNA-I6, PCNA-I7, PCNA-I8, PCNA-I9 and PCNA-I10 were assessed using MTT staining in LNCaP and PC-3 cells. […]

Cc1ccsc1C(=O)N/N=C/c1ccc2ccccc2c1O [PCNA-I1]
Tumor eradication, LNCaP model (LNCaP cells; 50 mg/kg i.p., three times/week): eradication of LNCaP tumors in some mice
Tumor growth, LNCaP model (LNCaP cells; 10 or 50 mg/kg i.p., three times/week): retarded tumor growth
PCNA expression in tumor (immunohistochemistry) (LNCaP cells; LNCaP tumor, 10 mg/kg three times/week, FIG. 22): reduced PCNA expression
PCNA in NP-E fraction (free-form PCNA), time course (PCNA; PC-3, 0.5 μM, FIG. 10(A)): not significantly altered in cells treated by PCNA-I1 for up to 8 H but reduced in cells treated for 16 H
PCNA in NP-R fraction (chromatin-associated PCNA), time course (PCNA; PC-3, 0.5 μM, FIG. 10(A)): reduced in 1 to 2 H
Chromatin-associated and free form PCNA, concentration dependence (PCNA; PC-3, FIG. 10(B)): at concentration of 0.5 μM or lower mainly reduced the level of chromatin-associated PCNA and at concentration of 1 μM or higher led to a reduction of both the chromatin-associated and free form PCNA
IC50 (B16 melanoma cells): 0.35 µM
IC50 [1]: 0.16 µM
IC50 [2]: 0.14 µM
